# Experimental data as given in article PMC8654833 (Scientific Reports, 2021).
# Values joined by “and” are separate entries in the source; they are usually repeats but may differ in a detail not shown here. Equal values may be shown once.
# Key:
# [1] = Plasma pharmacokinetics after IV, PO or SC administration; settings: for half-life / bioavailability: in vivo
# 5-HT1A = target: T1, 5-HT1A (Homo sapiens, UniProt P08908); test: Single-concentration radioligand binding screen (Eurofins Cerep), 5-HT1A; settings: single concentration 10 µM screen, [3H]8-OH-DPAT
# T1 construct: Euroscreen FAST (contract assay)
# T1 sequence (P08908 1-422): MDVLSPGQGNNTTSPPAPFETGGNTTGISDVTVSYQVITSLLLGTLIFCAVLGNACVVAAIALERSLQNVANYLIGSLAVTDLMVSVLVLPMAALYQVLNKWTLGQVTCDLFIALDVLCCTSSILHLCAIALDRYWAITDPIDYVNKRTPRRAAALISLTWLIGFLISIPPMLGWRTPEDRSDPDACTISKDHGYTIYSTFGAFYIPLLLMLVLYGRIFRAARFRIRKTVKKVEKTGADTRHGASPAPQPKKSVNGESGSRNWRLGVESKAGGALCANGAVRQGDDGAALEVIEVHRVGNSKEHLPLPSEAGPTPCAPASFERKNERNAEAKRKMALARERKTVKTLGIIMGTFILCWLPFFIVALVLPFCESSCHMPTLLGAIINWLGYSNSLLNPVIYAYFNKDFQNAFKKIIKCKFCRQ
# Experimental: (§1) This study included binding assays (87 GPCR targets), measured as % of binding inhibition of a reference radioligand, as well as uptake and enzyme assays (19 targets), the latter measured as % inhibition of control enzyme activity. […] It was performed by radioligand binding competition by Euroscreen (Euroscreen FAST, Belgium). The following nanomolar concentrations were tested in duplicate: 0.001, 0.01, 0.1, 1, 10, 100, 1000, 10,000. Dose–response curves were fitted with the least squares method. IC50 results are shown as pIC50, corresponding to the negative log10 of IC50 in molar.
# 5-HT5A [2] = target: T2, 5-HT5A (Homo sapiens, UniProt P47898); test: Single-concentration radioligand binding screen (Eurofins Cerep), 5-HT5A; settings: single concentration 10 µM screen, [3H]LSD
# T2 construct: Euroscreen FAST (contract assay)
# Experimental: as §1
# [3] = Stability in vehicle at 37 °C by LC-MS; type: physicochemical; settings: vehicle (20% DMSO in distilled water), data not shown
# [4] = tested on: microglia and motor neurons in the ventral spinal cord; test: Iba1 and ChAT immunostaining of lumbar spinal cord; type: in vivo; settings: Sod1^G86R mice
# Experimental: We then sought to characterize whether BW modulated microglial physiology and used RT-qPCR to measure microglia related genes in the cervical and thoracic spinal cord of animals treated with either vehicle or 3 mg/kg/d of BW. […] We next wanted to see if these changes in gene expression were accompanied by modification of microglial activation in spinal cord of treated mice. Iba1 + cells were classified in 4 different activation states (resting, activated, phagocytic or dystrophic).
# Lumbar spinal cord was dissected and cryopreserved before OCT inclusion. Samples were cut with a cryostat (Leica CM30505) at 20 µm of thickness. Iba1 (1:100, Sigma cat#SAB2702364, RRID: AB_2820253) and ChaT (1:100, Millipore cat#AB144P) immunostainings were performed using DAB peroxidase technique to assess microglial integrity and motor neuron degeneration. Images were acquired using a Leica DM750 microscope at × 10 magnification. Cells were counted in the ventral horn in a standardized zone with n = 4–10 images per animal, and subsequently classified using FIJI software (RRID: SCR_002285)[23],[24].
# NET = target: T3, NET (Homo sapiens, UniProt P23975); test: Radioligand binding competition dose-response (Euroscreen), norepinephrine transporter; settings: dose-response study, maximal concentration 10 µM, 3H]nisoxetine
# T3 construct: Euroscreen FAST (contract assay)
# Experimental: as §1
# Ca^2+ channel, ds = test: Single-concentration radioligand binding screen (Eurofins Cerep), Ca2+ channel diltiazem site; settings: single concentration 10 µM screen, [3H]diltiazem
# Experimental: as §1
# 5-HT5A [5] = target: T2, 5-HT5A; test: Radioligand binding competition dose-response (Euroscreen), 5-HT5A
# Experimental: as §1
# 5-HT2B = 5-HT2B (Homo sapiens, UniProt P41595); test: Single-concentration radioligand binding screen (Eurofins Cerep), 5-HT2B; design: Euroscreen FAST (contract assay); settings: single concentration 10 µM screen, [3H]mesulergine
# Ca^2+ channel, vs = test: Single-concentration radioligand binding screen (Eurofins Cerep), Ca2+ channel verapamil site; settings: single concentration 10 µM screen, [3H]D888
# Experimental: as §1
# 5-HT7 = target: T4, 5-HT7 (Homo sapiens, UniProt P34969); test: Radioligand binding competition dose-response (Euroscreen), 5-HT7
# T4 construct: Euroscreen FAST (contract assay)
# Experimental: as §1
# 5-HT2C = target: T5, 5-HT2C (Homo sapiens, UniProt P28335); test: Radioligand binding competition dose-response (Euroscreen), 5-HT2C
# T5 construct: Euroscreen FAST (contract assay)
# T5 sequence (P28335 33-458): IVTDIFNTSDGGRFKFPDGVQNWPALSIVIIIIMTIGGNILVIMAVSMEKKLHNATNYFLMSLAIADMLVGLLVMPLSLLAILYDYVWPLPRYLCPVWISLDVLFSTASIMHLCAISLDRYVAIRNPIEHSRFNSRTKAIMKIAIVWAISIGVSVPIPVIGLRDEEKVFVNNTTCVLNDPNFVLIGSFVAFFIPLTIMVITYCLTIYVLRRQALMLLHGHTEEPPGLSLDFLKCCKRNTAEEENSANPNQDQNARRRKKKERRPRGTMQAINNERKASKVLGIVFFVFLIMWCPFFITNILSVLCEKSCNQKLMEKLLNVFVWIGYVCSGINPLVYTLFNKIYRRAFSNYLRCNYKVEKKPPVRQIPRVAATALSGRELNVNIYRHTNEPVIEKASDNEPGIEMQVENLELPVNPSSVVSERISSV
# Experimental: as §1
# [6] = IV 2 mg/kg, individual mice n1-n3, 2 mg/kg
# [7] = PO 10 mg/kg, individual mice n1-n3, 10 mg/kg
# [8] = SC 10 mg/kg, individual mice n1-n3, 10 mg/kg
# [9] = dose-response study, maximal concentration 10 µM, [3H]LSD
# T2 sequence (P47898 whole entry, species assumed): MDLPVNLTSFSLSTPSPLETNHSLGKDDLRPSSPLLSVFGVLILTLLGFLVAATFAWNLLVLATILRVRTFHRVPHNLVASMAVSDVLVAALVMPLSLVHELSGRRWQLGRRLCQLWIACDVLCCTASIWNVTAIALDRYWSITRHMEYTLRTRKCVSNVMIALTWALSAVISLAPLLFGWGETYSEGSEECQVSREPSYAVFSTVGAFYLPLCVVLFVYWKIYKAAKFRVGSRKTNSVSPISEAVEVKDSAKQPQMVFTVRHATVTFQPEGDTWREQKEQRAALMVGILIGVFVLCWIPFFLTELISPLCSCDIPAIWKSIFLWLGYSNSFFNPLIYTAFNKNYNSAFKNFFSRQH
# T4 sequence (P34969 whole entry, species assumed): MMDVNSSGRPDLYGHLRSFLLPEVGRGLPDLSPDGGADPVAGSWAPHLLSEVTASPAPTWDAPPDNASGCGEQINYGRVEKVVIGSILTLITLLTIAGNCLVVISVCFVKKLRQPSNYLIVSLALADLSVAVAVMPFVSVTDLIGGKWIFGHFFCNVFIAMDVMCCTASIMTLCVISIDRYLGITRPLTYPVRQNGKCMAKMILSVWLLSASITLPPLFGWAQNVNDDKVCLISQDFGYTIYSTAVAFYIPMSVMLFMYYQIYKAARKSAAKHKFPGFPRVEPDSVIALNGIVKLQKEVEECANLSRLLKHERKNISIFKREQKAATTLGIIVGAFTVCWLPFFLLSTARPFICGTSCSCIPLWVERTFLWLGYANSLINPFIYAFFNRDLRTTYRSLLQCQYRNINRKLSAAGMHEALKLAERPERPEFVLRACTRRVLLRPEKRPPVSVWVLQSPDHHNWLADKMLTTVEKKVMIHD
# T3 sequence (P23975 whole entry): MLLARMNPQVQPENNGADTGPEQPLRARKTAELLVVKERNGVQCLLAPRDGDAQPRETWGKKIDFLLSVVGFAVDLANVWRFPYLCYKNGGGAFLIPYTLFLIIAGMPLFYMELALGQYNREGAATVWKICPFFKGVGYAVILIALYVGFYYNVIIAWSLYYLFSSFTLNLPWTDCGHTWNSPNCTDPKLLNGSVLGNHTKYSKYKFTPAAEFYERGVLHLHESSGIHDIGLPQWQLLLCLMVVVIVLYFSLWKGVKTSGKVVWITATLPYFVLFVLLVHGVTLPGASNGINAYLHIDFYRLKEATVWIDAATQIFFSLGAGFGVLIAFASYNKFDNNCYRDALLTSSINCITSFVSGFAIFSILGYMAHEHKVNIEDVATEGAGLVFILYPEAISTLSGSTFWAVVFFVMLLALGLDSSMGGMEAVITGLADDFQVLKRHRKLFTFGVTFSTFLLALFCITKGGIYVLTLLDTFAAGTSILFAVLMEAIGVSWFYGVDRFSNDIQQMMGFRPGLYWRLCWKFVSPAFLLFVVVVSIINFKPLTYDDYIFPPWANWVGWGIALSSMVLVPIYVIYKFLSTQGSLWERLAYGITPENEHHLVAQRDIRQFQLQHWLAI
# Sequence of 5-HT2B (P41595 whole entry, species assumed): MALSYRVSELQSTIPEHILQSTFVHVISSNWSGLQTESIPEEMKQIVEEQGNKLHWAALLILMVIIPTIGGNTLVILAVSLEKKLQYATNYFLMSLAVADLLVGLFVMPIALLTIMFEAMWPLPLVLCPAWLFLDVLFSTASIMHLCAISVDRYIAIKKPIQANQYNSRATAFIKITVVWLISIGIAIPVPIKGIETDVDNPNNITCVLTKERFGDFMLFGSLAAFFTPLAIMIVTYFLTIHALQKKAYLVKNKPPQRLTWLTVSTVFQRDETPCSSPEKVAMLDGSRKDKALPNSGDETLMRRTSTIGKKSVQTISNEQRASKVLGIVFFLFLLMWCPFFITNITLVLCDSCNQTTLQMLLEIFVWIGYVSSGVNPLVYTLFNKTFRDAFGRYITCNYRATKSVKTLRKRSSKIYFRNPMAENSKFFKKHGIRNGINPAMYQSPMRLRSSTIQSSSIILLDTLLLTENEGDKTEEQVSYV
smiles,measurement,setting,value
"CC(N)Cc1c[nH]c2ccc(OCc3cccs3)cc12 (centres unmarked) [BW, 1-[5-(thiophen-2-ylmethoxy)-1H-indol-3-yl]propan-2-amine]",plasma detection at 24 h,[1]; 24 h after a single administration (data not shown),no compound could be detected
same,half-life,"[1]; CD-1, mouse, iv, 2 mg/kg, T1/2, IV 2 mg/kg, individual mice n1-n3",0.98 h
same,half-life,"[1]; CD-1, mouse, iv, 2 mg/kg, T1/2, IV 2 mg/kg, mean",0.93 h
same,bioavailability,"[1]; CD-1, mouse, po, 10 mg/kg, PO 10 mg/kg",4.72%
same,half-life,"[1]; CD-1, mouse, po, 10 mg/kg, T1/2, PO 10 mg/kg, mean",2.55 h
same,bioavailability,"[1]; CD-1, mouse, sc, 10 mg/kg, SC 10 mg/kg",35%
same,half-life,"[1]; CD-1, mouse, sc, 10 mg/kg, T1/2, SC 10 mg/kg, individual mice n1-n3",1.14 h
same,half-life,"[1]; CD-1, mouse, sc, 10 mg/kg, T1/2, SC 10 mg/kg, mean",1.37 h
same,AUC0-inf,"[1]; CD-1, mouse, plasma, iv, 2 mg/kg, AUC0-inf, IV 2 mg/kg, individual mice n1-n3",289 ng·h/mL
same,AUC0-inf,"[1]; CD-1, mouse, plasma, iv, 2 mg/kg, AUC0-inf, IV 2 mg/kg, mean",236 ng·h/mL
same,C0,"[1]; CD-1, mouse, plasma, iv, 2 mg/kg, C0, IV 2 mg/kg, individual mice n1-n3",406 ng/mL
same,C0,"[1]; CD-1, mouse, plasma, iv, 2 mg/kg, C0, IV 2 mg/kg, mean",354 ng/mL
same,AUC0-inf,"[1]; CD-1, mouse, plasma, po, 10 mg/kg, AUC0-inf, PO 10 mg/kg, individual mice n1-n3",239 ng·h/mL
same,AUC0-inf,"[1]; CD-1, mouse, plasma, po, 10 mg/kg, AUC0-inf, PO 10 mg/kg, mean",278 ng·h/mL
same,Cmax,"[1]; CD-1, mouse, plasma, po, 10 mg/kg, Cmax, PO 10 mg/kg, mean",77 ng/mL
same,Tmax,"[1]; CD-1, mouse, plasma, po, 10 mg/kg, Tmax, PO 10 mg/kg, mean",0.58 h
same,AUC0-inf,"[1]; CD-1, mouse, plasma, sc, 10 mg/kg, AUC0-inf, SC 10 mg/kg, individual mice n1-n3",2030 ng·h/mL
same,AUC0-inf,"[1]; CD-1, mouse, plasma, sc, 10 mg/kg, AUC0-inf, SC 10 mg/kg, mean",2070 ng·h/mL
same,Cmax,"[1]; CD-1, mouse, plasma, sc, 10 mg/kg, Cmax, SC 10 mg/kg, individual mice n1-n3",1100 ng/mL
same,Cmax,"[1]; CD-1, mouse, plasma, sc, 10 mg/kg, Cmax, SC 10 mg/kg, mean",1020 ng/mL
same,Tmax,"[1]; CD-1, mouse, plasma, sc, 10 mg/kg, Tmax, SC 10 mg/kg, mean",0.19 h
same,AUC0-inf,[1]; [6],221 ng·h/mL and 199 ng·h/mL
same,AUCExtra,[1]; [6],4.8% and 3.5% and 4.5%
same,C0,[1]; [6],290 ng/mL and 366 ng/mL
same,T1/2,[1]; [6],0.84 h and 0.98 h
same,AUCExtra,"[1]; IV 2 mg/kg, mean",4.3%
same,AUC0-inf,[1]; [7],294 ng·h/mL and 302 ng·h/mL
same,AUCExtra,[1]; [7],29.9% and 7.2% and 1.0%
same,Cmax,[1]; [7],36.5 ng/mL and 61.5 ng/mL and 132 ng/mL
same,T1/2,[1]; [7],4.50 h and 2.01 h and 1.13 h
same,Tmax,[1]; [7],0.25 h and 1.00 h
same,AUCExtra,"[1]; PO 10 mg/kg, mean",12.7%
same,AUC0-inf,[1]; [8],2246 ng·h/mL and 1938 ng·h/mL
same,AUCExtra,[1]; [8],0.7% and 1.4% and 3.3%
same,Cmax,[1]; [8],1010 ng/mL and 935 ng/mL
same,T1/2,[1]; [8],1.2 h and 1.65 h
same,Tmax,[1]; [8],0.25 h (2×) and 0.08 h
same,AUCExtra,"[1]; SC 10 mg/kg, mean",1.8%
same,inhibition at 10 µM,5-HT1A,91.8%
same,inhibition at 10 µM,5-HT5A [2],54.6%
same,stable at 37 °C in vehicle,[3],at least 2 months
same,"microglial morphology (proportion of resting, activated, phagocytic, dystrophic Iba1+ cells)",[4]; 3 mg/kg/d vs vehicle,No statistically significant difference
same,loss of motor neurons (ChAT positive cells in the ventral spinal cord),[4]; 3 mg/kg/d,did not modify
same,inhibition at 10 µM,NET,74.4%
same,%Binding inhibition at 10 µM,"Ca^2+ channel, ds",66.3%
same,IC50,5-HT5A [5],1380 nM
same,inhibition at 10 µM,5-HT5A [5]; [9],84.3%
same,inhibition at 10 µM,5-HT2B,99%
same,%Binding inhibition at 10 µM,"Ca^2+ channel, vs",75.5%
same,IC50,5-HT7,1020 nM
same,inhibition at 10 µM,5-HT7; [9],91.8%
same,IC50,5-HT2C,1320 nM
same,inhibition at 10 µM,"5-HT2C; dose-response study, maximal concentration 10 µM, [3H]mesulergine",91.1%
